Patent US11220491B2, “Photoprotective compositions containing Malassezia-derived compounds and/or chemical analogs thereof” (Versicolor Technologies, LLC, priority 2018, dated 2022)

How the values were obtained:
[1] = tested on: MelanoDerm™ Skin Model; assay: MelanoDerm Study 1, MTT tissue viability (Example 19); type: cell-based, human; details: 200 μM compared to 50 μM
From the text: Treatments were as follows: 7-days of treatment in alternate days (7TD); 7-days of treatment in alternate days followed by 7-days without treatment (recovery) (7TD+7NTD); and 14-days of treatment in alternate days (14TD). The study also evaluated the potential dermal irritation induced by each test article as measured by the conversion of MTT by MelanoDerm™ tissues after repeated exposures to the test articles, over the treatment periods specified in the protocol.
(Berridge et al., 1996). The toxicity of the test articles to the tissue, which is evidence for potential dermal irritation, was determined by measuring the relative survival—the MTT conversion relative to the negative control-treated tissues.
The test articles, CV-8686 and AB11644, were provided as stock solutions (˜100 mM each) in DMSO. The test articles were administered to the test system as a 50 μM and 200 μM dilution in sterile, EPI-100-LLMM. Test article DMSO (vehicle control) was administered to the test system as a 0.2% dilution in sterile, EPI-100-LLMM.
The test articles were each prepared using the procedure as follows: starting from the stock concentrations provided, 2 μl of each test article were first diluted with the appropriate volume of EPI-100-LLMM to a final concentration of 200 μM. […]

[2] = target: T1, arylhydrocarbon receptor (AhR) (Homo sapiens, UniProt P35869); assay: HepG2-AhR-Luciferase assay; details: EC50 (uM), 24 hours of treatment
T1 sequence (P35869 11-848): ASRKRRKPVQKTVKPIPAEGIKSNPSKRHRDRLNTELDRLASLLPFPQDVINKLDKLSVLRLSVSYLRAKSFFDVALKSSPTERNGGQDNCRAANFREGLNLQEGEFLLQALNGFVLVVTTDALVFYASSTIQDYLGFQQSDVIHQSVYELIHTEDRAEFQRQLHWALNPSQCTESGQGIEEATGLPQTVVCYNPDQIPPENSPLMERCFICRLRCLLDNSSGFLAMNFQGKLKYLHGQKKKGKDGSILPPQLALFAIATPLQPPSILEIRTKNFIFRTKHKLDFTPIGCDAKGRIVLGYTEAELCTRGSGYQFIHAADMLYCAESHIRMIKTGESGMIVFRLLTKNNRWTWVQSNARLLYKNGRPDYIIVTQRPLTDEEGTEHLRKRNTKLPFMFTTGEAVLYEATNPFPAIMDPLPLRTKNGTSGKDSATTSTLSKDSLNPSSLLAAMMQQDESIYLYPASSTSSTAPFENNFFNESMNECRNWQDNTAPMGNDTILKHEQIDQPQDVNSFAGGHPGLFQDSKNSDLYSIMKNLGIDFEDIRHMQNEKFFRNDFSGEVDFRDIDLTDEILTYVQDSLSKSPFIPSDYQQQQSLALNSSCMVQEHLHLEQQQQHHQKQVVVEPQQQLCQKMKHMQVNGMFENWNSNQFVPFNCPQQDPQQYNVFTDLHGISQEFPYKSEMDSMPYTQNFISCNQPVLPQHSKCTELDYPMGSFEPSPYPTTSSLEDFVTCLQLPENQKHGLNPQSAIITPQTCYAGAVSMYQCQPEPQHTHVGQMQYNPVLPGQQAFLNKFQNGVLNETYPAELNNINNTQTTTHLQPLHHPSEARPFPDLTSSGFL
Procedure: HepG2-AhR-Luc cells were purchased from Pharmaron, One-Glo Luciferase assay system was purchased from Promega. DMEM was purchased from Hyclone, and penicillin/streptomycin was purchased from Solabio.
Culture media for stably transfected HepG2 cells was prepared by supplementing DMEM with high glucose and L-glutamine, as well as 10% FBS.
HepG2-AhR-Luc cells were cultured in T-75 flasks at 37° C., 5% CO2, and 95% relative humidity. Cells were allowed to reach 80-90% confluence before detachment and splitting.
Cultivated cells were rinsed with 5 mL PBS. PBS was aspirated away, 1.5 mL trypsin was added to the flask, and cells were incubated at 37° C. for approximately 5 minutes or until the cells detached and floated. Trypsin was inactivated by adding excess serum-containing media.
The cell suspension was transferred to a conical tube and centrifuged at 120 g for 10 minutes to pellet the cells. Cells were resuspended in seeding media at a proper density. 40 μL of cells were transferred to a 384-well culture plate (5×10^3 cells/well). Plates were placed in the incubator at 37° C. for 24 hours.
Afterward, stock solutions of test compounds and omeprazole positive control were prepared. Compound solutions were transferred into the assay plate using Echo550. The plate was then placed back into the incubator for compound treatment.
Later, after 24 hours of treatment, the plate was removed from the incubator and allowed to cool at ambient temperature. 30 μL One-Glo reagent equal to that of the culture medium was added in each well. Cells were allowed to lyse for at least 3 minutes, and then measured in a luminometer.
Dose responses were graphed using the non-linear regression analysis in XLfit and EC50 values were also calculated.

[3] = tested on: MeWo cells; assay: Preliminary annexin V-FITC assay (Example 7); type: cell-based; details: 6-hour treatment
Procedure: MeWo (ATCC® HTB-65™) and WM115 (ATCC® CRL-1675) cells were purchased from ATCC (Manassas, Va.) and maintained in the following: for MeWo:DMEM supplemented with 10% FBS; for WM115: RPMI 1640 supplemented with 10% FBS (10% FBS, 1% stabilized antibiotic anti-mycotic solution).
During the first set of studies, both MeWo and WM115 cells were treated with test compounds at 10 doses starting from 100 μM with 3-fold dilution. Staurosporine was used as positive control. After 6-hour treatment, cell apoptosis was assessed using an annexin V assay. The test compounds evaluated were CV-8684, CV-8685, CV-8686, CV-8687, and CV-8688.
For cell seeding, cells were harvested and the cell number was determined using Countess® cell counter. Cells were then diluted with culture medium to the desired density. 40 μL of cell suspension per well was added to the required number of wells in a 384-well plate (Corning 3712—clear bottom plate). The final cell density was 6,000 cells/well. After plating, the plates were incubated at 37° C., and 5% CO2 overnight.
For preparation of compound source plate, each test compound was dissolved in DMSO to 10 mM stock. 3-fold serial dilution was performed using an EVO200™ liquid handler (TECAN) to generate ten concentrations of test compound. 0.1% DMSO was employed as vehicle (negative) control. The compound source plate was then spun at room temperature at 1,000 RPM for 1 minute and agitated using a plate shaker for 2 minutes.
For compound treatment, 40 nL of compound were transferred from the compound source plate to the 384-well culture plate using liquid handler Echo550 (LabCyte Inc.). After 6-hour incubation, the plates were removed from the incubator for detection.
For the preliminary annexin V assay, the plates were removed from the incubator and allowed to equilibrate at room temperature for 15 minutes. Culture media was then removed. 20 μL of pre-mixed annexin V-FITC and Hoechst33342 dye working solution were added to each well. The cells were then incubated at room temperature for 20 minutes. […] Afterward, the plate was read using an Acumen eX3 plate reader. The relative activity was calculated according to the following formula: Activity (%)=100%×(CountAnnexin V/CountTotal cell), and EC50 was calculated using GraphPad Prism (v. 5.01).

[4] = tested on: MeWo cells; assay: Annexin V assay, additional evaluation (Example 8); type: cell-based; details: 100, 10, 1 μM; 6, 24, 48, 72 hours
Procedure: (§1) To further investigate the impact of test compounds on apoptosis, multiple readouts, covering different stages of apoptosis, were carried out on both MeWo and WM115 cells. Both cell types were treated with test compounds at 3 doses (100 μM, 10 μM, and 1 μM). Staurosporine was used as a positive control. […] The test compounds evaluated were CV-8684. CV-8685, and CV-8688.
(§2) Cell seeding was performed as discussed above with the following exceptions: the final cell density was 4,000 cells/well for 6-hour and 24-hour detections, whereas 2,000 cells/well were used for 48-hour and 72-hour detections. For each time point. 384-well clear bottom plates (Corning 3712) and solid white bottom plates (Corning 3570) were prepared. The plates were incubated as discussed above.
(§3) For preparation of the compound source plate, each test compound was dissolved in DMSO to 10 mM stock. Two additional concentrations were generations by 10-fold dilution to 1 mM and 0.1 mM. Staurosporine was used as positive control and 1% DMSO was employed as vehicle (negative) control. The compound source plate was spun at room temperature at 1,000 RPM for 1 minute and agitated using a plate shaker for 2 minutes.
(§4) 400 nL of test compound was transferred from the compound source plate to 384-well culture plates using Echo550 liquid handler. After 6, 24, 48, and 72 hours, the plates were removed from the incubator for detections.
(§5) Culture media was removed and cells were washed twice with PBS. 20 μL of pre-mixed annexin V-FITC working solution was added to each well. The cells were incubated at room temperature for 20 minutes. Plates were read using Acumen eX3 to count the number of FITC-positive cells. The relative activity was calculated according to the following formula: Relative Activity (%)=100%×(Countsample/Countvehicle).

[5] = tested on: WM115 cells; assay: Annexin V assay, additional evaluation (Example 8); type: cell-based; details: 100, 10, 1 μM; 6, 24, 48, 72 hours
Procedure: as §1, §2, §3, §4, §5

[6] = tested on: MeWo cells; assay: CellTiter-Glo cell viability assay (Example 9); type: cell-based; details: 100, 10, 1 μM; 6, 24, 48, 72 hours
Procedure: (§6) CellTiter-Glo® 2.0 assay was purchased from Promega. Cell seeding, preparation of the compound source plate, and exposure of cells to test compounds were performed as described in Example 8.
(§7) CellTiter-Glo® reagents were thawed and equilibrated to room temperature before the experiment. 40 μL of CellTiter-Glo® reagent was then added to each well for detection (at 1:1 ratio to culture medium). The plates were then incubated at room temperature for 30 minutes and read using EnSpire (PerkinElmer) plate reader. The remaining activity was calculated according to the following formula: Remaining Activity (%)=100%×(Lumsample−Lumbkg)/(Lumvehicle−Lumbkg).

[7] = tested on: WM115 cells; assay: CellTiter-Glo cell viability assay (Example 9); type: cell-based; details: 100, 10, 1 μM; 6, 24, 48, 72 hours
Procedure: as §6, §7

[8] = tested on: MeWo cells; assay: Lactate dehydrogenase (LDH) release assay (Example 10); type: cell-based; details: 100, 10, 1 μM; 6, 24, 48, 72 hours
Procedure: (§8) The LDH assay quantitatively measures lactate dehydrogenase (“LDH”) released into the media from damaged cells as a biomarker for cytotoxicity and cytolysis.
(§9) CytoTox-ONE™ Homogenous Membrane Integrity Assay was purchased from Promega. Cell seeding, preparation of the compound source plate, and exposure of cells to test compounds were performed as described in Example 8.
(§10) Plates were then centrifuged at 1,000 RPM for 1 minute. 20 μL of cell culture medium was transferred into a new 384-well black solid plate. Then, 20 μL of CytoTOX-ONE™ was added into each well and incubated at room temperature for 10 minutes. Afterward, 10 μL of stop solution were added to each well, and the plates were agitated at 500 rpm for 1 minute. Plates were read using an excitation wavelength of 560 nm and an emission wavelength of 590 nm on EnSpire. The relative activity was calculated according to the following formula: Relative Activity (%)=100%×(Lumsample−Lumbkg)/(Lumvehicle−Lumbkg).

[9] = tested on: WM115 cells; assay: as above; type: cell-based; details: 100, 10, 1 μM; 6, 24, 48, 72 hours
Procedure: as §8, §9, §10

[10] = tested on: MeWo cells; assay: Cell morphology after treatment (Example 6); type: cell-based; details: 100 μM, 6 hours
[11] = tested on: WM115 cells; assay: Cell morphology after treatment (Example 6); type: cell-based; details: 100 μM, 6 hours

SMILES | viability of the tissues, dose response [1] | EC50 ([2]; Table 2) | EC50 ([2]; Table 1) | annexin V staining ([3]; preliminary screen) | EC50 ([3]; Homo sapiens, MeWo, 10 doses starting from 100 μM, read-out: EC50 of annexin V staining) | apoptosis induction (annexin V binding) [4] | apoptosis induction (annexin V binding) [5] | inhibition of cell viability [6] | inhibition of cell viability [7] | LDH release [8] | LDH release [9] | cell morphology [10] | cell morphology [11]
c1ccc2c(C(c3c[nH]c4ccccc34)C3CC3)c[nH]c2c1 [AB11644] | slightly lower viability | 14.9 µM |  |  |  |  |  |  |  |  |  |  | 
Cc1ccc2c(Cc3[nH]c4ccccc4c3C=O)c[nH]c2c1 [CV-8686] | slightly lower viability |  | 3.17 µM |  |  |  |  |  |  |  |  |  | 
CC(c1[nH]c2ccccc2c1C=O)c1c[nH]c2ccccc12 (stereo not drawn) [CV-8688] |  |  | 19.9 µM | markedly increased annexin V staining | 909 nM | showed the induction effect within 6 hours of treatment in a dose-dependent manner | showed the induction effect within 6 hours of treatment in a dose-dependent manner | inhibited viability of both cell types in a dose-dependent manner | inhibited viability of both cell types in a dose-dependent manner | induced LDH release at the highest concentration tested | induced LDH release at the highest concentration tested | significantly affected | significantly affected
